Measured values published in ChEMBL document CHEMBL2203009, “Synthesis of isoindole and benzoisoindole derivatives of teicoplanin pseudoaglycon with remarkable antibacterial and antiviral activities” (Bioorg Med Chem Lett, 2012).
≈ marks a conversion by molar mass, not a printed value.

Tests used:
[1] = Toxicity in HEL cells assessed as induction of cell morphology changes; assay type: cell-based; details: human
Human alphaherpesvirus 1 [2] = experiment: Antiviral activity against thymidine kinase deficient and acyclovir-resistant HSV1 KOS infected in HEL cells assessed as inhibition of virus-induced cytopathic effect; assay type: functional, organism-based; details: Human alphaherpesvirus 1, KOS
[3] = test system: Vesicular stomatitis virus; experiment: Antiviral activity against Vesicular stomatitis virus infected in HEL cells assessed as inhibition of virus-induced cytopathic effect; assay type: functional, organism-based
Vaccinia virus = experiment: Antiviral activity against Vaccinia virus infected in HEL cells assessed as inhibition of virus-induced cytopathic effect; assay type: functional, organism-based; details: Orthopoxvirus vaccinia
Human alphaherpesvirus 2 = experiment: Antiviral activity against HSV2 G infected in HEL cells assessed as inhibition of virus-induced cytopathic effect; assay type: functional, organism-based; details: Human alphaherpesvirus 2, strain G
Human alphaherpesvirus 1 [4] = experiment: Antiviral activity against HSV1 KOS infected in HEL cells assessed as inhibition of virus-induced cytopathic effect; assay type: functional, organism-based; details: Human alphaherpesvirus 1, KOS
[5] = Toxicity in MDCK cells assessed as induction of cell morphology changes; assay type: cell-based, Canis lupus familiaris; details: dog
Influenza B virus = experiment: Antiviral activity against Influenza B virus (B/Hong Kong/05/1972) […] infected in MDCK cells assessed as inhibition of virus-induced cytopathic effect; assay type: functional, cell-based; details: B/Hong Kong/05/1972, MDCK
H3N2 subtype = experiment: Antiviral activity against Influenza A virus (A/Hong Kong/7/1987(H3N2)) […] infected in MDCK cells assessed as inhibition of virus-induced cytopathic effect; assay type: functional, organism-based
Influenza A virus = experiment: Antiviral activity against Influenza A virus (A/Puerto Rico/8/1934(H1N1)) H1N1 infected in MDCK cells assessed as inhibition of virus-induced cytopathic effect; assay type: functional, organism-based
Enterococcus faecalis [6] = experiment: Antimicrobial activity against Enterococcus faecalis 15376 over-expressing vanA; assay type: functional
Enterococcus faecalis [7] = experiment: Antimicrobial activity against Enterococcus faecalis ATCC 51299 over-expressing vanB; assay type: functional
[8] = test system: Staphylococcus epidermidis; experiment: Antimicrobial activity against Staphylococcus epidermidis over-expressing MecA; assay type: functional
Enterococcus faecalis [9] = experiment: Antimicrobial activity against Enterococcus faecalis ATCC 29212; assay type: functional
[10] = test system: Staphylococcus epidermidis; experiment: Antimicrobial activity against Staphylococcus epidermidis ATCC 35984 biofilms; assay type: functional
Staphylococcus aureus [11] = experiment: Antimicrobial activity against methicillin-resistant Staphylococcus aureus ATCC 33591; assay type: functional
Bacillus subtilis = experiment: Antimicrobial activity against Bacillus subtilis ATCC 6633; assay type: functional
Staphylococcus aureus [12] = experiment: Antimicrobial activity against methicillin-sensitive Staphylococcus aureus ATCC 29213; assay type: functional

CC(=O)N[C@H]1[C@H](O[C@@H]2c3ccc(c(Cl)c3)Oc3cc4cc(c3O)Oc3ccc(cc3Cl)C[C@H]3NC(=O)[C@H](n5cc6cc7ccccc7cc6c5Sc5ncccn5)c5ccc(O)c(c5)Oc5cc(O)cc(c5)[C@H](NC3=O)C(=O)N[C@H]4C(=O)N[C@H]3C(=O)N[C@@H]2C(=O)N[C@H](C(=O)O)c2cc(O)cc(O)c2-c2cc3ccc2O)O[C@H](CO)[C@@H](O)[C@@H]1O
MCC [1]: ≥ 100 µM | EC50 (Human alphaherpesvirus 1 [2]): 45 µM | EC50 [3]: > 100 µM | EC50 (Vaccinia virus): 10 µM | EC50 (Human alphaherpesvirus 2): 27 µM | EC50 (Human alphaherpesvirus 1 [4]): 40 µM | MCC [5]: 13 µM | EC50 (Influenza B virus): > 50 µM | EC50 (H3N2 subtype): 0.54 µM | EC50 (Influenza A virus): 0.54 µM | MBC (Enterococcus faecalis [6]): 256 mg/L (≈ 154 µM) | MIC (Enterococcus faecalis [6]): 0.5 mg/L (≈ 0.301 µM) | MBC (Enterococcus faecalis [7]): 256 mg/L (≈ 154 µM) | MIC (Enterococcus faecalis [7]): 1 mg/L (≈ 0.602 µM) | MBC [8]: 256 mg/L (≈ 154 µM) | MIC [8]: 0.015 mg/L (≈ 0.00902 µM) | MBC (Enterococcus faecalis [9]): 256 mg/L (≈ 154 µM) | MIC (Enterococcus faecalis [9]): 0.015 mg/L (≈ 0.00902 µM) | MBC [10]: 0.5 mg/L (≈ 0.301 µM) | MIC [10]: 0.015 mg/L (≈ 0.00902 µM) | MBC (Staphylococcus aureus [11]): 0.5 mg/L (≈ 0.301 µM) | MIC (Staphylococcus aureus [11]): 0.015 mg/L (≈ 0.00902 µM) | MBC (Bacillus subtilis): 2 mg/L (≈ 1.2 µM) | MIC (Bacillus subtilis): 0.0313 mg/L (≈ 0.0188 µM) | MBC (Staphylococcus aureus [12]): 0.5 mg/L (≈ 0.301 µM) | MIC (Staphylococcus aureus [12]): 0.015 mg/L (≈ 0.00902 µM)

CC(=O)N[C@H]1[C@H](O[C@@H]2c3ccc(c(Cl)c3)Oc3cc4cc(c3O)Oc3ccc(cc3Cl)C[C@H]3NC(=O)[C@H](n5cc6ccccc6c5Sc5ccccc5)c5ccc(O)c(c5)Oc5cc(O)cc(c5)[C@H](NC3=O)C(=O)N[C@H]4C(=O)N[C@H]3C(=O)N[C@@H]2C(=O)N[C@H](C(=O)O)c2cc(O)cc(O)c2-c2cc3ccc2O)O[C@H](CO)[C@@H](O)[C@@H]1O
MCC [1]: ≥ 20 µM | EC50 (Human alphaherpesvirus 1 [2]): ≥ 20 µM | EC50 [3]: > 20 µM | EC50 (Vaccinia virus): > 20 µM | EC50 (Human alphaherpesvirus 2): 9 µM | EC50 (Human alphaherpesvirus 1 [4]): 9 µM | MCC [5]: 4 µM | EC50 (Influenza B virus): > 100 µM | EC50 (H3N2 subtype): > 100 µM | EC50 (Influenza A virus): > 100 µM | MBC (Enterococcus faecalis [6]): 32 mg/L (≈ 19.9 µM) | MIC (Enterococcus faecalis [6]): 2 mg/L (≈ 1.24 µM) | MBC (Enterococcus faecalis [7]): 256 mg/L (≈ 159 µM) | MIC (Enterococcus faecalis [7]): 2 mg/L (≈ 1.24 µM) | MBC [8]: 32 mg/L (≈ 19.9 µM) | MIC [8]: 2 mg/L (≈ 1.24 µM) | MBC (Enterococcus faecalis [9]): 256 mg/L (≈ 159 µM) | MIC (Enterococcus faecalis [9]): 0.0075 mg/L (≈ 0.00466 µM) | MBC [10]: 0.5 mg/L (≈ 0.31 µM) | MIC [10]: 0.0165 mg/L (≈ 0.0102 µM) | MBC (Staphylococcus aureus [11]): 2 mg/L (≈ 1.24 µM) | MIC (Staphylococcus aureus [11]): 0.0625 mg/L (≈ 0.0388 µM) | MBC (Bacillus subtilis): 1 mg/L (≈ 0.621 µM) | MIC (Bacillus subtilis): 1 mg/L (≈ 0.621 µM) | MBC (Staphylococcus aureus [12]): 128 mg/L (≈ 79.5 µM) | MIC (Staphylococcus aureus [12]): 0.125 mg/L (≈ 0.0776 µM)

CC(=O)N[C@H]1[C@H](O[C@@H]2c3ccc(c(Cl)c3)Oc3cc4cc(c3O)Oc3ccc(cc3Cl)C[C@H]3NC(=O)[C@H](n5cc6ccccc6c5S[C@@H]5O[C@H](CO)[C@@H](O)[C@H](O)[C@H]5O)c5ccc(O)c(c5)Oc5cc(O)cc(c5)[C@H](NC3=O)C(=O)N[C@H]4C(=O)N[C@H]3C(=O)N[C@@H]2C(=O)N[C@H](C(=O)O)c2cc(O)cc(O)c2-c2cc3ccc2O)O[C@H](CO)[C@@H](O)[C@@H]1O
MCC [1]: ≥ 100 µM | EC50 (Human alphaherpesvirus 1 [2]): ≥ 45 µM | EC50 [3]: 52 µM | EC50 (Vaccinia virus): 45 µM | EC50 (Human alphaherpesvirus 2): 40 µM | EC50 (Human alphaherpesvirus 1 [4]): 45 µM | MCC [5]: < 0.8 µM | EC50 (Influenza B virus): > 100 µM | EC50 (H3N2 subtype): > 100 µM | EC50 (Influenza A virus): > 100 µM | MBC (Enterococcus faecalis [6]): 256 mg/L (≈ 151 µM) | MIC (Enterococcus faecalis [6]): 0.0625 mg/L (≈ 0.0368 µM) | MBC (Enterococcus faecalis [7]): 256 mg/L (≈ 151 µM) | MIC (Enterococcus faecalis [7]): 1 mg/L (≈ 0.589 µM) | MBC [8]: 32 mg/L (≈ 18.9 µM) | MIC [8]: 0.015 mg/L (≈ 0.00884 µM) | MBC (Enterococcus faecalis [9]): 256 mg/L (≈ 151 µM) | MIC (Enterococcus faecalis [9]): 2 mg/L (≈ 1.18 µM) | MBC [10]: 0.5 mg/L (≈ 0.295 µM) | MIC [10]: 0.0075 mg/L (≈ 0.00442 µM) | MBC (Staphylococcus aureus [11]): 1 mg/L (≈ 0.589 µM) | MIC (Staphylococcus aureus [11]): 0.0075 mg/L (≈ 0.00442 µM) | MBC (Bacillus subtilis): 1 mg/L (≈ 0.589 µM) | MIC (Bacillus subtilis): 0.125 mg/L (≈ 0.0737 µM) | MBC (Staphylococcus aureus [12]): 1 mg/L (≈ 0.589 µM) | MIC (Staphylococcus aureus [12]): 0.0313 mg/L (≈ 0.0185 µM)

CC(=O)N[C@@H]1[C@@H](OC(C)=O)[C@H](OC(C)=O)[C@@H](COC(C)=O)O[C@H]1Sc1c2ccccc2cn1[C@H]1C(=O)N[C@@H]2Cc3ccc(c(Cl)c3)Oc3cc4cc(c3O)Oc3ccc(cc3Cl)[C@@H](O[C@@H]3O[C@H](CO)[C@@H](O)[C@H](O)[C@H]3NC(C)=O)[C@@H]3NC(=O)[C@H](NC(=O)[C@@H]4NC(=O)[C@@H](NC2=O)c2cc(O)cc(c2)Oc2cc1ccc2O)c1ccc(O)c(c1)-c1c(O)cc(O)cc1[C@@H](C(=O)O)NC3=O
MCC [1]: > 100 µM | EC50 (Human alphaherpesvirus 1 [2]): 45 µM | EC50 [3]: > 100 µM | EC50 (Vaccinia virus): 45 µM | EC50 (Human alphaherpesvirus 2): 40 µM | EC50 (Human alphaherpesvirus 1 [4]): 40 µM | MCC [5]: 20 µM | EC50 (Influenza B virus): > 100 µM | EC50 (H3N2 subtype): > 100 µM | EC50 (Influenza A virus): > 100 µM | MBC (Enterococcus faecalis [6]): 256 mg/L (≈ 137 µM) | MIC (Enterococcus faecalis [6]): 0.0625 mg/L (≈ 0.0335 µM) | MBC (Enterococcus faecalis [7]): 256 mg/L (≈ 137 µM) | MIC (Enterococcus faecalis [7]): 2 mg/L (≈ 1.07 µM) | MBC [8]: 32 mg/L (≈ 17.2 µM) | MIC [8]: 2 mg/L (≈ 1.07 µM) | MBC (Enterococcus faecalis [9]): 256 mg/L (≈ 137 µM) | MIC (Enterococcus faecalis [9]): 2 mg/L (≈ 1.07 µM) | MBC [10]: 2 mg/L (≈ 1.07 µM) | MIC [10]: 0.0075 mg/L (≈ 0.00402 µM) | MBC (Staphylococcus aureus [11]): 2 mg/L (≈ 1.07 µM) | MIC (Staphylococcus aureus [11]): 0.0625 mg/L (≈ 0.0335 µM) | MBC (Bacillus subtilis): 1 mg/L (≈ 0.537 µM) | MIC (Bacillus subtilis): 0.25 mg/L (≈ 0.134 µM) | MBC (Staphylococcus aureus [12]): 1 mg/L (≈ 0.537 µM) | MIC (Staphylococcus aureus [12]): 0.125 mg/L (≈ 0.0671 µM)
